According to US8906896B2, “Platinum acridine anti-cancer compounds and methods thereof” (priority 2008, dated 2014):

How the values were obtained:
NCI-H460 NSCLC cell line [1] = conditions: typical values; cited from earlier work
NCI-H460 NSCLC cell line [2] = assay: Cytotoxicity (cell proliferation) assay, NCI-H460; assay type: cell-based
Method: Cytotoxicity Assay. Cytotoxicity studies were carried out according to a standard protocol (Guddneppanavar et al. 2006) using the Celltiter 96 Aqueous Non-Radioactive Cell Proliferation Assay kit (Promega, Madison, Wis.). […] IC50 values were calculated from non-linear curve fits using a sigmoidal dose-response equation in GraphPad Prism (GraphPad Software, La Jolla, Calif.).

[3] = H460 xenograft study in nude mice; assay type: in vivo; conditions: female, athymic nude, mouse, in vivo, ip, q4d×3, mice; dose B stated to be close to the MTD; read-out: maximum tolerated dose (MTD)
Method: (§1) Xenograft Study. H460 xenografts were established in nude athymic female mice via bilateral subcutaneous injections. Treatment began when the average tumor volume was approximately 100 mm^3. The tumor-bearing mice were randomized depending on tumor volume into three groups of five test animals each: one control group receiving vehicle only, one group treated at 0.1 mg/kg 5d/w×2 (A), and one group treated at 0.5 mg/kg q4d×3 (B). Animal weights and tumor volumes were measured and recorded for 17 days after the first dose was administered. Tumor volumes were determined using the formula:V (mm^3)=d^2×D/2, where d and D are the shortest and longest dimension of the tumor, respectively, and are reported as the sum of both tumors for each test animal. At the end of the study, all animals were euthanized and disposed of according to Standard Operating Procedures (SOPs). Statistical analysis of the growth curves was done using a non-linear polynomial random-coefficient model in SAS Proc Mixed (SAS Institute Inc., Cary, N.C.).
(§2) The antitumor activity of compound 14b was evaluated against H460 bilateral tumors implanted into athymic nude mice. […] Complex 14b was administered intraperitonealy (i.p.) according to the following dosing schedules: (A) 0.1 mg/kg, five days per week for two consecutive weeks (5d/w×2), and (B) 0.5 mg/kg, three doses given at 4-day intervals (q4d×3). The tumor volumes recorded in both treatment groups and in untreated control animals are plotted vs. days of treatment in FIG. 1. At the end of the study, the tumors measured 1834±160, 1798±309, and 1102±319 mm^3 (means±S.E.M.) for the control animals and animals treated according to schedules A and B, respectively.
(§3) Growth curves are shown for untreated control animals (open squares), and mice treated according to schedule A (filled triangles) and schedule B (filled circles). Measurement of tumor volumes began on day 0, and treatment began on day 4. Each data point represents the mean of 5 tumor volumes±S.E.M.

[4] = tested on: H460 NSCLC tumors xenografted into nude mice; assay: H460 xenograft study in nude mice; assay type: in vivo
Method: as §1, §2, §3

| Compound | IC50 in H460 cells (typical) (NCI-H460 NSCLC cell line [1]) | potency in H460 cells relative to the compounds of the invention (fold less potent) (NCI-H460 NSCLC cell line [2]) | MTD at 17 days [3] [mg/kg] | tolerated dose relative to cisplatin ([4]; administered i.p.) | effect on tumor growth ([4]; schedule A: 0.1 mg/kg i.p. 5d/w×2) | effect on tumor growth rate compared to control group ([4]; schedule B: 0.5 mg/kg i.p. q4d×3, P<0.01) |
| --- | --- | --- | --- | --- | --- | --- |
| N.N.[Cl][Pt][Cl] [Cisplatin, cis-diamminedichloroplatinum] | micromolar range | at least 20 fold | – | – | – | – |
| CC/C(=[N]\[Pt]([NH2])([NH2])[Cl])N(C)CCNc1c2ccccc2nc2ccccc12 [Compound 14b] | – | – | ~0.5 | an order of magnitude lower than those commonly applied for cisplatin | no effect on tumor growth | slowed the tumor growth rate significantly |
